Test results published in US20090221653A1, “7-(2-amino-1-hydroxy-ethyl)-4-hydroxybenzothiazol-2(3H)-one-derivatives as beta2 adrenoreceptor agonists” (AstraZeneca AB, priority 2005, published 2009).
Counter-ions that a name gives are not always drawn.

Legend:
[1] = biological target: T1, recombinant human adrenergic beta 1 receptors (Homo sapiens, UniProt P08588); assay: Adrenergic β1 selectivity assay, inhibition of [125I]-Iodocyanopindolol binding; conditions: membranes, [125I]-Iodocyanopindolol; read-out: β1 bind pIC50 (converted)
T1 construct: purchased Euroscreen
T1 sequence (P08588 whole entry): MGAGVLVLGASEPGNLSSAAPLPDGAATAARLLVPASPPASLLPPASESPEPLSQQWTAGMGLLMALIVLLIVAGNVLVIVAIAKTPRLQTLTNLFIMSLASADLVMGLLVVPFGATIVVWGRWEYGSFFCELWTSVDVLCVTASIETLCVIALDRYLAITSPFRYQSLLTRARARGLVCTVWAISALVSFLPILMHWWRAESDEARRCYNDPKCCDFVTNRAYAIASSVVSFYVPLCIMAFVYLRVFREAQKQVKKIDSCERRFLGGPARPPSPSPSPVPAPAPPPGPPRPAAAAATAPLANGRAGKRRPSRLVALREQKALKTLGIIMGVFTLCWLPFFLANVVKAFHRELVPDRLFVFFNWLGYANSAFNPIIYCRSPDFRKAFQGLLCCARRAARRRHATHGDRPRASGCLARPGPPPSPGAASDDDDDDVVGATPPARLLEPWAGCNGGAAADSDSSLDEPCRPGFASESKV
Experimental: Membranes containing recombinant human adrenergic beta 1 receptors were obtained from Euroscreen. These were diluted in Assay Buffer (50 mM HEPES, 1 mM EDTA, 120 mM NaCl, 0.1% gelatin, pH 7.4) to provide a final concentration of membranes that gave a clear window between maximum and minimum specific binding.
Assays were performed in U-bottomed 96-well polypropylene plates. […] Membranes were then added to achieve a final volume of 100 μL. The plates were incubated for 2 hours at room temperature and then filtered onto PEI coated GF/B filter plates, pre-soaked for 1 hour in Assay Buffer, using a 96-well plate Tomtec cell harvester. Five washes with 250 μL wash buffer (50 mM HEPES, 1 mM EDTA, 120 mM NaCl, pH 7.4) were performed at 4° C. to remove unbound radioactivity. The plates were dried then sealed from underneath using Packard plate sealers and MicroScint-O (50 μL) was added to each well. The plates were sealed (TopSeal A) and filter-bound radioactivity was measured with a scintillation counter (TopCount, Packard BioScience) using a 3-minute counting protocol.
(§1) Total specific binding (B0) was determined by subtracting the mean NSB from the mean maximum binding. NSB values were also subtracted from values from all other wells.

[2] = biological target: T2, recombinant human α1D receptor (Homo sapiens, UniProt P25100); assay: Adrenergic α1D selectivity assay, inhibition of [3H]-prazosin binding; conditions: HEK293 membranes, [3H]-prazosin 0.3 nM; read-out: α1 bind pIC50 (converted)
T2 construct: expressed in transfected cells; host or cells: HEK293
T2 sequence (P25100 1-572): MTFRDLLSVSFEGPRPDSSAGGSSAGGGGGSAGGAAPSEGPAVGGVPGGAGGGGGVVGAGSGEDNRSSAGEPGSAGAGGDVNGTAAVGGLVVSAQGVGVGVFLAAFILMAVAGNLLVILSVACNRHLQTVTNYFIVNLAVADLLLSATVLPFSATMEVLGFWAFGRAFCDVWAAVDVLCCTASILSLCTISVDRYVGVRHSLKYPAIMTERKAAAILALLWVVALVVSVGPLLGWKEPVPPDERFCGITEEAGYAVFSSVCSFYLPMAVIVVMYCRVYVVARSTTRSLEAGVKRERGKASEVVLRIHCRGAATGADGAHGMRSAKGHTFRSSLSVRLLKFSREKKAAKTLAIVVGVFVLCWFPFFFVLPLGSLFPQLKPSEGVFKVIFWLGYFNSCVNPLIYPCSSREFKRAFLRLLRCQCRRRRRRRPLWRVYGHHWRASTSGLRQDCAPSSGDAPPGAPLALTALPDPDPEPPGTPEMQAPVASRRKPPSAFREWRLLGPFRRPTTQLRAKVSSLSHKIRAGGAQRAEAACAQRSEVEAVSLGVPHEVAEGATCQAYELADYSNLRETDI
Experimental: Membranes were prepared from human embryonic kidney 293 (HEK293) cells expressing recombinant human α1D receptor. These were diluted in Assay Buffer (50 mM HEPES, 1 mM EDTA, 0.1% gelatin, pH 7.4) to provide a final concentration of membranes that gave a clear window between maximum and minimum specific binding.
Assays were performed in U-bottomed 96-well polypropylene plates. 10 μL [^3H]-prazosin (0.3 nM final concentration) and 10 μL of test compound (10× final concentration) were added to each test well. For each assay plate 8 replicates were obtained for [^3H]-prazosin binding in the presence of 10 μL vehicle (10% (v/v) DMSO in Assay Buffer; defining maximum binding) or 10 μL BMY7378 (10 μM final concentration; defining non-specific binding (NSB)). Membranes were then added to achieve a final volume of 100 μL. The plates were incubated for 2 hours at room temperature and then filtered onto PEI coated GF/B filter plates, pre-soaked for 1 hour in Assay Buffer, using a 96-well plate Tomtec cell harvester. Five washes with 250 μL wash buffer (50 mM HEPES, 1 mM EDTA, pH 7.4) were performed at 4° C. to remove unbound radioactivity. The plates were dried then sealed from underneath using Packard plate sealers and MicroScint-O (50 μL) was added to each well. The plates were sealed (TopSeal A) and filter-bound radioactivity was measured with a scintillation counter (TopCount, Packard BioScience) using a 3-minute counting protocol.
as §1

[3] = biological target: T3, recombinant human Dopamine Subtype D2s receptors (Homo sapiens, UniProt P14416); assay: Dopamine D2 selectivity assay, inhibition of [3H]-spiperone binding; conditions: membranes, [3H]-spiperone 0.16 nM; read-out: D2 bind pIC50 (converted)
T3 construct: purchased Perkin Elmer
T3 sequence (P14416 1-414 isoform P14416-2): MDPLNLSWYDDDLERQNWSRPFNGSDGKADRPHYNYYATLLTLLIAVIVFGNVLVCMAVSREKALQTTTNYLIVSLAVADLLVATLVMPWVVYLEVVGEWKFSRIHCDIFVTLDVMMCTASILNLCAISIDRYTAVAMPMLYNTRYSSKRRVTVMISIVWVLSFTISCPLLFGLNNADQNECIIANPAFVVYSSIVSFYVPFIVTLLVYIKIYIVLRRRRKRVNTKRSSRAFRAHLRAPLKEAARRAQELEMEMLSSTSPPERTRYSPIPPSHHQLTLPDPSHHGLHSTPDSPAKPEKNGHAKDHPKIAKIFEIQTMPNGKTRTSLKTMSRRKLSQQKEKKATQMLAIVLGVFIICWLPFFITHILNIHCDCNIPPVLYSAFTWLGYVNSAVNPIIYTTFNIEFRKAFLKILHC

IC50 [1] [nM] | IC50 [2] [nM] | IC50 [3] [nM] | SMILES
15.8 | 1000 | – | O=c1[nH]c2c(O)ccc([C@@H](O)CNCCCS(=O)(=O)CCOCCc3cccc4ccccc34)c2s1 [Example 2, 4-Hydroxy-7-((1R)-1-hydroxy-2-{[3-({2-[2-(1-naphthyl)ethoxy]ethyl}sulfonyl)propyl]-amino}ethyl)-1,3-benzothiazol-2(3H)-one trifluoroacetate]
126 | 200 | 794 | Cl.O=c1[nH]c2c(O)ccc([C@@H](O)CNCCSCCOCCc3cccc4ccccc34)c2s1 [Example 4, 4-Hydroxy-7-((1R)-1-hydroxy-2-{[2-({2-[2-(1-naphthyl)ethoxy]ethyl}thio)ethyl]-amino}ethyl)-1,3-benzothiazol-2(3H)-one hydrochloride]
